Some test systems named below: KM12; SF-268; SF-539; K562; SK-OV-3; A498; COLO 205; NCI-H226; MOLT-4; CCRF-CEM; SF-295; NCI-H522; SR; NCI-H23; HCT-15; OVCAR-3; SNB-75; IGROV-1.
What all share (assay): NCI tumour cell line growth inhibition, 48 h

Molecules are shown by their SMILES.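 Cultured in 96-well plates, cells were exposed to test compound for 48 hours across five concentrations. The concentration for 50% growth inhibition is given as GI50.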 Active and inactive are the calls of the source. Cut-off read from the data, not from the text of the source: active = GI50 up to about 1.1 µM and inactive = higher.

For the molecule `Cc1ccc(SSc2ccc(C)cc2C(=O)O)c(C(=O)O)c1`, the GI50 in the experiment on KM12, with SF-268, in the experiment on SF-539, with K562, in the experiment with SK-OV-3 and with A498 was > 100 µM (inactive) each time. Also, the GI50 in the experiment with COLO 205, with NCI-H226, in the experiment on MOLT-4, in the experiment on CCRF-CEM, in the experiment on SF-295 and in the experiment with NCI-H522 was > 100 µM (inactive) each time. Also, the GI50 with SR and in the experiment with NCI-H23 was > 100 µM (inactive) each time.
Turning to `FC1OC2OC1C(OCc1ccccc1)C(OCc1ccccc1)C2OCc1ccccc1` (centres undefined), the GI50 with KM12 is 49.1 µM (inactive); in the experiment on SF-268, 32.4 µM (inactive); with SF-539, > 100 µM (inactive); with K562, 25.8 µM (inactive); in the experiment with HCT-15, 35.7 µM; in the experiment on SK-OV-3, > 100 µM (inactive). Also, the GI50 in the experiment with A498 was > 100 µM (inactive); with COLO 205, 61.9 µM (inactive); in the experiment with NCI-H226, 77.3 µM (inactive); with OVCAR-3, 36.8 µM (inactive); with SNB-75, 34.7 µM (inactive); in the experiment on MOLT-4 it was 22.8 µM (inactive). In addition, the GI50 with CCRF-CEM was 26.6 µM (inactive); with SF-295 it was > 100 µM (inactive); with NCI-H522, > 10 µM (inactive); in the experiment on NCI-H23, > 100 µM (inactive); in the experiment on IGROV-1, 34.6 µM (inactive).
With `COc1cc2c(c3c1C=CCO3)C(=O)c1ccccc1C2=O`, the GI50 in the experiment with KM12 is 30.3 µM (inactive); with SF-268, 47.6 µM (inactive); in the experiment on SF-539 it was 36.1 µM (inactive); in the experiment on K562 it was 32.3 µM (inactive); in the experiment on HCT-15 it was 29.6 µM; in the experiment on SK-OV-3, > 100 µM (inactive). In addition, the GI50 is 19.6 µM (inactive) in the experiment on COLO 205; 32.2 µM (inactive) with NCI-H226; 42.8 µM (inactive) with OVCAR-3; 51.1 µM (inactive) in the experiment with SNB-75; 23.6 µM (inactive) in the experiment on MOLT-4; 22 µM (inactive) in the experiment on CCRF-CEM. For the same molecule, the GI50 with SF-295 was > 100 µM (inactive); in the experiment on NCI-H522, 29.7 µM (inactive); in the experiment on SR, 28 µM (inactive); in the experiment with NCI-H23, > 100 µM (inactive); with IGROV-1, 26.8 µM (inactive).
Take `COC1CC(OS(=O)(=O)c2ccc(C)cc2)C(OS(=O)(=O)c2ccc(C)cc2)C(COS(=O)(=O)c2ccc(C)cc2)O1` (centres undefined): the GI50 in the experiment on KM12 was 52 µM (inactive); in the experiment with SF-268, 1.02 µM (active); in the experiment with SF-539 it was 1.88 µM (inactive); in the experiment with K562, 23.9 µM (inactive); in the experiment with HCT-15, 5.35 µM; with SK-OV-3 it was 3.01 µM (inactive). Moreover, the GI50 with COLO 205 was 37.9 µM (inactive); in the experiment on NCI-H226, 3.23 µM (inactive); with OVCAR-3, 1.89 µM (inactive); in the experiment on SNB-75 it was 0.535 µM (active); in the experiment with MOLT-4, > 100 µM (inactive); in the experiment on CCRF-CEM, 74.3 µM (inactive). The GI50 was 1.55 µM (inactive) in the experiment on SF-295; 3.8 µM (inactive) in the experiment on NCI-H522; 6.12 µM (inactive) in the experiment with SR; 2.92 µM (inactive) with NCI-H23; 4.89 µM (inactive) with IGROV-1.
For `CCSCN(C)c1nc(N(C)C)nc(N(C)C)n1`, the GI50 in the experiment with KM12 was 35.3 µM (inactive); in the experiment with SF-268 it was > 100 µM (inactive); in the experiment with SF-539 it was 36.1 µM (inactive); with K562 it was 46.8 µM (inactive); with HCT-15, 42.5 µM; with SK-OV-3, > 100 µM (inactive). For the same molecule, the GI50 was 47.8 µM (inactive) in the experiment on A498; 75.2 µM (inactive) in the experiment with COLO 205; 38.3 µM (inactive) in the experiment with OVCAR-3; 59 µM (inactive) with SNB-75; 46.8 µM (inactive) in the experiment with MOLT-4; 48.1 µM (inactive) in the experiment on CCRF-CEM. The GI50 is 92.3 µM (inactive) with SF-295; 35 µM (inactive) in the experiment on NCI-H522; 30 µM (inactive) in the experiment on SR; 33.6 µM (inactive) in the experiment on NCI-H23; 78.7 µM (inactive) in the experiment on IGROV-1.
For `CC(=O)Oc1c(C)n(CCCl)ccc1=O`, the GI50 is > 100 µM (inactive) with KM12; > 100 µM (inactive) with SF-268; > 100 µM (inactive) in the experiment on K562; 34.8 µM with HCT-15; > 100 µM (inactive) in the experiment with SK-OV-3; > 100 µM (inactive) in the experiment with A498. The GI50 is > 100 µM (inactive) in the experiment on COLO 205; > 100 µM (inactive) in the experiment with NCI-H226; > 100 µM (inactive) in the experiment with OVCAR-3; > 100 µM (inactive) with SNB-75; > 100 µM (inactive) with MOLT-4; 84.3 µM (inactive) in the experiment on CCRF-CEM. The GI50 in the experiment with SF-295, with NCI-H522 and in the experiment on SR was > 100 µM (inactive) in each case.
Regarding `Nc1ccc(C(=O)N/C(=C\C=C\c2ccco2)c2nc3c(O)nc(S)nc3[nH]2)cc1`, the GI50 in the experiment with KM12 is > 100 µM (inactive); with SF-268 it was > 100 µM (inactive); in the experiment with SF-539, > 100 µM (inactive); with K562, > 100 µM (inactive); in the experiment with HCT-15, > 100 µM; with SK-OV-3 it was > 100 µM (inactive). Also, the GI50 in the experiment on COLO 205, in the experiment on OVCAR-3, in the experiment with MOLT-4, in the experiment on CCRF-CEM, with SF-295 and in the experiment with NCI-H522 was > 100 µM (inactive) in each case. Moreover, the GI50 in the experiment on SR, in the experiment on NCI-H23 and in the experiment on IGROV-1 was > 100 µM (inactive) throughout.
Regarding `COc1ccc2ccc([Se]c3ccc4ccc(OC)cc4c3)cc2c1`, the GI50 with KM12 is 51.9 µM (inactive); in the experiment on SF-268, 61.1 µM (inactive); in the experiment with SF-539, > 100 µM (inactive); in the experiment with K562, > 100 µM (inactive); with HCT-15, > 100 µM; in the experiment on SK-OV-3, > 100 µM (inactive). Moreover, the GI50 is > 100 µM (inactive) in the experiment on A498; > 100 µM (inactive) in the experiment with COLO 205; 63.1 µM (inactive) in the experiment with NCI-H226; > 100 µM (inactive) in the experiment with OVCAR-3; 26.6 µM (inactive) in the experiment with SNB-75; 63.2 µM (inactive) in the experiment on MOLT-4. Further, the GI50 with CCRF-CEM is 49.8 µM (inactive); in the experiment with SF-295 it was 74.6 µM (inactive); in the experiment on NCI-H522, 84.5 µM (inactive); with NCI-H23, > 100 µM (inactive); with IGROV-1, > 100 µM (inactive).
As for `CC#C[C@@]1(O)CCCCC1O` (some centres undefined), the GI50 was > 100 µM (inactive) with KM12; > 100 µM (inactive) in the experiment with SF-268; > 100 µM (inactive) with SF-539; > 100 µM (inactive) in the experiment with K562; > 100 µM in the experiment on HCT-15; > 100 µM (inactive) in the experiment with SK-OV-3. In addition, the GI50 in the experiment on A498 was > 100 µM (inactive); in the experiment on COLO 205 it was > 100 µM (inactive); with NCI-H226 it was > 100 µM (inactive); in the experiment with OVCAR-3, > 100 µM (inactive); in the experiment on SNB-75, 66.8 µM (inactive); in the experiment on MOLT-4, > 100 µM (inactive). Moreover, the GI50 in the experiment on CCRF-CEM, in the experiment with SF-295, in the experiment with NCI-H522, with NCI-H23 and with IGROV-1 was > 100 µM (inactive) each time.
For `O=C1NC2OC(CO)C(O)C(O)C2O1` (centres undefined), the GI50 in the experiment with KM12 is > 100 µM (inactive); in the experiment with SF-268, > 100 µM (inactive); with SF-539, > 100 µM (inactive); in the experiment on K562, > 100 µM (inactive); with HCT-15 it was > 100 µM; in the experiment with SK-OV-3, > 100 µM (inactive). Besides, the GI50 with A498, in the experiment with COLO 205, in the experiment with OVCAR-3, in the experiment on SNB-75, with MOLT-4 and in the experiment with CCRF-CEM was > 100 µM (inactive) each time. Further, the GI50 in the experiment with SF-295, with NCI-H522, in the experiment on SR, in the experiment on NCI-H23 and in the experiment with IGROV-1 was > 100 µM (inactive) throughout.
On to `CCC(CO)Nc1nc2c(c(=O)n(C)c(=O)n2C)n1CCO` (centres undefined), for which the GI50 was > 100 µM (inactive) in the experiment on KM12; > 100 µM (inactive) in the experiment with SF-268; > 100 µM (inactive) in the experiment on SF-539; > 100 µM (inactive) in the experiment on K562; > 100 µM in the experiment on HCT-15; > 100 µM (inactive) in the experiment on SK-OV-3. In addition, the GI50 in the experiment with COLO 205 is > 100 µM (inactive); with NCI-H226 it was > 100 µM (inactive); in the experiment on OVCAR-3 it was > 100 µM (inactive); with SNB-75, 48.9 µM (inactive); with MOLT-4, > 100 µM (inactive); with SF-295, > 100 µM (inactive). The GI50 in the experiment on SR, with NCI-H23 and in the experiment on IGROV-1 was > 100 µM (inactive) throughout.
For the molecule `CC(C#N)c1cn(S(=O)(=O)c2ccccc2)c2ccccc12` (centres undefined), the GI50 with KM12 is 72.1 µM (inactive); with SF-268 it was 82.8 µM (inactive); in the experiment on SF-539 it was 68.1 µM (inactive); in the experiment with K562, 39.8 µM (inactive); with HCT-15, 53.6 µM; in the experiment on COLO 205, > 100 µM (inactive). Moreover, the GI50 in the experiment on NCI-H226 was 25.7 µM (inactive); in the experiment with OVCAR-3, 53.1 µM (inactive); in the experiment with SNB-75 it was 8.95 µM (inactive); with MOLT-4, 35.9 µM (inactive); with CCRF-CEM, 48.8 µM (inactive); in the experiment with SF-295, 34.4 µM (inactive). Also, the GI50 with NCI-H522 was 27.7 µM (inactive); with SR it was 30.8 µM (inactive); with NCI-H23 it was 39.9 µM (inactive); with IGROV-1 it was 78.5 µM (inactive).
